Reference: EP0051084A1, “Substituted 1H-1,2,4-triazoles” (AMERICAN CYANAMID COMPANY, priority 1980, dated 1982)

Legend:
[1] = tested on: Adjuvant induced experimental polyarthritis; assay: Adjuvant Arthritis Assay; type: in vivo, Royal Hart Wistar strain rats; design: key: Active: If the mean RSA of all three tests is less than 0.753, the compound is considered active; conditions: rats, 50 mg./kg. orally once daily on days 0 through 13 post-challenge; injected paw measured on 14th day; RSA = treated/control
Source text: Adjuvant induced experimental polyarthritis is a specific systemic disease of the rat which shares interesting similarities with rheumatoid arthritis. Specifically, the histology of the two diseases bears a remarkable resemblence as shown by C. M. Pearson, et al, Am. J. Path., 42, 73 (1963). E. M. Glenn, Am. J. Vet. Res., 27, (116), 339 (1966) has classified adjuvant induced polyarthritis as a crippling and permanent deformity resulting from diffuse connective tissue involvement around certain susceptible joints in the rat. Zahiri, et al., Can. Med. Ass. J., 101, 269 (1969) have shown that the fusiform swelling of the distal joints is associated with edema, congestion and synovitis including pannus formation, all of which precede the ultimate destruction of bone and cartilage. Furthermore, Zahiri, et al., indicate that the cartilage destruction in the joint is due to an invasive pannus which originates in the marginal synovium and extends across the articular surface to erode it. […] The most pointed reference showing the relationship between arthritis and joint deterioration is "An X-Ray Analysis of Adjuvant Arthritis in the Rat; the Effect of Prednisolone and Indomethacin", Blackham, et al., Agents and Action, 7 (No. 1), 145-151 (1977). In a similar manner, inhibition of the progress of arhtritis in paws of rats treated with the compounds of this invention also lessens associated joint deterioration.
Groups of three Royal Hart Wistar strain rats, weighing 200 + 10 g. each were injected intradermally in the right hind paw with Freund's adjuvant (dried human tubercle bacilli in a mineral oil vehicle) at a dose of 2 mg./kg. of body weight. Test compounds were administered orally in a 1.5% starch vehicle at 50 mg./kg. of body weight once daily on days 0 through 13 post-challenge. Control rats were treated in a similar manner, buty given only starch vehicle. On the l4th day post-challenge the diameter of the injected paw (primary lesion) was measured by micrometer caliper. From these measurements of inflamed paws a determination was made of the relative surface area (RSA). This is a ratio of the mean surface area of the paws of 3 treated rats/mean surface area of the paws of 60 control rats. If the RSA is equal to or less than 0.76, the compound is retested. After the second test, the mean RSA for the rat paws from both tests is calculated and if it is equal to or less than 0.736 the compound is tested a third time. If the mean RSA of all three tests is less than 0.753, the compound is considered active.

[2] = tested on: carrageenin inflamed feet; assay: Carrageenin Edema Assay; type: in vivo, Royal Hart, Wistar strain rats; design: key: Active: If the mean ratio of test 1 and 2 is equal to or greater than 1.43, the compound is considered active; conditions: rats, 250 mg./kg. by gavage; measured 5 hours after drug administration (4 hours after carrageenin challenge)
Procedure: Royal Hart, Wistar strain rats ranging in weight from 80 to 90 grams were used. The rats were fasted overnight prior to dosing but had free access to water. The test compounds were administered in aqueous suspension, by gavage, in a volume of 1.7 ml. per 50 grams of rat [corresponds to hydration volume used by Winter, et al., Proc. Soc. Exp. Biol. & Med., Ill, 544-547 (1962)]. The dose of all compounds was 250 mg./kq. The phlogistic agent used was carrageenin prepared as a sterile 1% suspension in 0.9% aqueous sodium chloride for routine testing. A volume of 0.05 ml. was injected into the plantar tissue of the right hind paw. Measurements were made 5 hours after drug administration (4 hours after carrageenin challenge). The paw of the unanesthetized rat was immersed in mercury exactly to an ink mark on the skin over the lateral malleolus. The mercury was contained in a glass cylinder 25 x 60 mm. The mercury column was connected with a Statham pressure transducer (model P23BB), range 0-5 cm. mercury. The output from the transducer was led through a model 260BLH signal conditioning unit and visualized by digital indicator. Volumes of both the normal and carrageenin inflamed feet were determined. The difference between the two measurements was considered to be the increased edema due to the carrageenin administration. Results were expressed as a control (C)/treated (T) efficacy ratio. (The ratio of mean edema volume of 8 control rats over the mean edema volume of 2 treated rats.) If the C/T ratio is equal to or greater than 1.41, the test is repeated. If the mean ratio of test 1 and 2 is equal to or greater than 1.43, the compound is considered active. The results of this test with typical compounds of this invention are recorded in Table

[3] = tested on: migration of macrophages; assay: Migratory Inhibition Test (capillary tube migration assay for MIF inhibitors); type: cell-based, Male Hartley guinea pigs; design: key: Active: Greater than 15% reversal of inhibition, c-b/a-b; conditions: Dose 10 mcg./ml.; guinea pig peritoneal cells, 37°C. for 24 hours
Source text: Migratory Inhibition Test
Rheumatoid arthritis is a chronic inflammatory disease that is characterized by the migration of lymphocytes, macrophages and polymorphonuclear leukocytes to the sites of inflammation. The migration of lymphocytes and macrophages and their multiplication in situ is one reason for the very large increase in size of the normally thin synovial membrane which encloses the joint space. This transformed synovial membrane slowly grows over the articular surfaces and causes the destruction of the articular cartilage and other connective tissue structures of the joint. One of the mechanisms for the destruction of articular cartilage by the synovium is through the release of various hydrolytic enzymes by the resident macrophages which have been immobilized and activated by migration inhibitory factor (MIF). Macrophages stimulated by MIF are termed "activated macrophages" and undergo the following changes: (a) increased glucose oxidation, (b) increased ruffling of plasma membrane and increased spreading of cells, (c) synthesis and secretion of neutral proteases, (d) release of preformed lysosomal enzymes, (e) decreased migration from a capillary tube. […] The mechanism of cartilage destruction can be pictured as follows: [formula]
Drugs that can therefore block the release of MIF by lymphocytes or the activation of macrophages by MIF may be clinically effective in retarding the destructive joint damage which occurs in rheumatoid arthritis. Drugs can be tested as MIF inhibitors by using the capillary tube migration assay as follows: Male Hartley guinea pigs, weighing between 300 and 600 grams, were injected intraperitoneally with 25 ml. of Marcal 52 Oil@ (Humble Oil Co.). Three to four days later the guinea pigs were decapitated, the peritoneum opened and 50 ml. of cold Hank's solution added to the peritoneum. The Hank's solution containing the cell suspension was then aspirated into a separatory funnel. This procedure was repeated twice. […] Viability of the cells was then determined using trypan blue. […]

Structure (SMILES) | Result (relative surface area (RSA) of injected paw) [1] | Result (control (C)/treated (T) efficacy ratio of edema volume) [2] | Result (reversal of antigen inhibition of macrophage migration) [3]
N#CCC(=O)Nc1ccc(-c2ncnn2-c2ccc(F)cc2)cc1 | Active | – | –
c1ccc(-c2ncnn2-c2ccccc2)cc1 [1,5-Diphenyl-1H-1,2,4-triazole, 1,5-Diphenyl-lH-1,2,4-triazole] | – | Active | –
Nc1ccc(-n2ncnc2-c2ccc(F)cc2)cc1 [1-(p-AminopUhenyl)-5-(p-fluorophenyl)-1H-1,2,4-triazole] | Active | – | –
COc1cc(-c2nc(C)nn2-c2ccc(Br)cc2)cc(OC)c1OC [1-(p-Bromophenyl)-3-methyl-5-(3,4,5- -trimethoxyphenyl)-lH-1,2,4-triazole] | – | Active | –
O=[N+]([O-])c1ccc(-c2ncnn2-c2ccc(Br)cc2)cc1 [1-(p-Bromophenyl)-5-(p-nitrophenyl)-1H-1,2,4-triazole] | Active | – | Active
O=[N+]([O-])c1ccc(-c2ncnn2-c2ccc(F)cc2)cc1 [1-(p-Fluorophenyl)-5-(p-nitrophenyl)-1H-1,2,4-triazole] | Active | – | –
CN(C)C=Nc1ccc(-c2ncnn2-c2ccc(F)cc2)cc1 [1-(p-Fluorophenyl)-5-[p-[(dimethylaminomethylene)-amino]phenyl]-1H-1,2,4-triazole] | Active | – | –
Clc1ccc(-n2ncnc2-c2cnccn2)cc1 [2-fl-(p-Chlorophenyl)-lH-1,2,4-triazol-5-yllpyrazine] | – | Active | –
c1cncc(-c2nnc[nH]2)c1 [3-(4H-1,2,4-Triazol-3-yl)-pyridine] | – | Active | –
c1ccc(-n2ncnc2-c2ccncc2)cc1 [4-(1-Phenyl-1H-1,2,4-triazol-5-yl)pyridine] | – | Active | Active
Fc1ccc(-n2ncnc2-c2ccncc2)cc1 [4-[1-(p-Fluorophenyl)-1H-1,2,4-triazol-5-yl]pyridine] | – | Active | –
Nc1ccc(-c2ncnn2-c2ccc(Cl)cc2)cc1 [5-(p-Aminophenyl)-1-(p-chlorophenyl)-1H-1,2,4-triazole] | Active | – | –
Nc1ccc(-c2ncnn2-c2ccc(F)cc2)cc1 [5-(p-Aminophenyl)-1-(p-fluorophenyl)-1H-1,2,4-triazole] | Active | – | –
Nc1ccc(-c2ncnn2-c2ccccc2F)cc1 [5-(p-Aminophenyl)-l-(o-fluorophenyl)-lH-l,2,4-triazole] | Active | – | –
Nc1ccc(-c2ncnn2-c2ccc(Br)cc2)cc1 [5-(p-Aminophenyl)-l-(p-bromophenyl)-lH-l,2,4-triazole] | Active | – | Active
O=[N+]([O-])c1ccc(-n2ncnc2-c2ccc(F)cc2)cc1 [5-(p-Fluorophenyl)-1-(p-nitrophenyl)-1H-1,2,4-triazole] | Active | – | –
O=[N+]([O-])c1ccc(-n2ncnc2-c2cnccn2)cc1 [(1-(p-Nitrophenyl)-1H-1,2,4-triazol-5-yl]pyrazine] | – | Active | –
O=[N+]([O-])c1ccc(-c2ncnn2-c2ccccc2)cc1 [l-Phenyl-5-(p-nitrophenyl)-lH-l,2,4-triazole] | Active | – | –
O=S(=O)(c1ccc(-n2ncnc2-c2cnccn2)cc1)C(F)F [{1-[p-(Difluoromethylsulfonyl)phenyl]-1H-1,2,4--triazol-5-yl}pyrazine] | – | Active | –
